In PMC7587931, “Affinity of Antifungal Isoxazolo[3,4-b]pyridine-3(1H)-Ones to Phospholipids in Immobilized Artificial Membrane (IAM) Chromatography” (Molecules, 2020):
One block for each compound: values may come before it.

Assays:
[1] = design: method as in PMID 31779124; conditions: RP-LC, determined previously; cited from earlier work
[2] = IAM-HPLC affinity to phospholipids (CHIIAM, gradient elution); type: physicochemical; conditions: IAM.PC.DD2 column, gradient 0-85% acetonitrile, 10 mM phosphoric buffer pH 7.4, 30.0 °C
Procedure: Thus, the CHI/CHIIAM values range from 0 to 100, corresponding to the concentration of acetonitrile in the mobile phase and reflecting the nature of the target compound: low and high values correspond to hydrophilic and lipophilic molecules, respectively.
All the HPLC experiments were carried out using a Prominence-1 LC-2030C 3D HPLC system (Shimadzu, Japan) equipped with a Diode-Array Detection (DAD) detector and an IAM.PC.DD2 column (10 × 4.6 mm; particle size 10.0 µm with an IAM guard column; Regis Technologies, Morton Grove, IL, USA). The LabSolution system (version 5.90, Shimadzu, Japan) was applied to control the HPLC system and for data collection. Before analysis, stock solutions of solutes were diluted to obtain concentrations of 100 μg/mL; the injected volume was 5 μL. The IAM-HPLC analyses were carried with a linear gradient of 0–85% phase B (where phase A was a 10 mM phosphoric buffer at pH 7.4 and phase B was acetonitrile) at a flow rate of 1.5 mL/min. The temperature of the chromatographic column was controlled and set to 30.0 °C and the analysis time was 6.5 min. The CHIIAM indices of the studied compounds were obtained using a calibration set of reference substances using the protocol proposed by Valko et al. [33]. Each HPLC analysis was run in triplicate.

Compound: O=c1onc2[nH]c3ccccc3cc1-2 [Compound 1]
- logkw [1]: 2.36

Compound: O=c1on(Cc2ccccc2)c2nc3ccccc3cc12 [Compound 2]
- logkw [1]: 3.98

Compound: Cn1oc(=O)c2cc3ccccc3nc21 [Compound 3]
- logkw [1]: 2.87

Compound: CC(=O)n1oc(=O)c2cc3ccccc3nc21 [Compound 4]
- logkw [1]: 2.79

Compound: O=C(c1ccccc1)n1oc(=O)c2cc3ccccc3nc21 [Compound 5]
- logkw [1]: 3.76

Compound: Cc1cc(C)c2c(=O)on(Cc3ccccc3)c2n1 [Compound 6]
- logkw [1]: 3.68

Compound: CC(=O)n1oc(=O)c2c(C)cc(C)nc21 [Compound 7]
- logkw [1]: 2.53

Compound: CCn1oc(=O)c2c(C)cc(C)nc21 [Compound 8]
- logkw [1]: 2.90

- CHIIAM [2]: 29.99
Compound: Cc1cc(C)c2c(=O)on(C(=O)c3ccccc3)c2n1 [Compound 9]
- logkw [1]: 2.77

Compound: Cc1cc(C)c2c(=O)on(C)c2n1 [Compound 10]
- logkw [1]: 2.58

Compound: COc1cc(Cn2oc(=O)c3c(C)cc(C)nc32)cc(OC)c1 [Compound 11]
- logkw [1]: 3.83

Compound: CCCCn1oc(=O)c2c(C)cc(C)nc21 [Compound 13]
- logkw [1]: 3.69

Compound: Cc1cc(C)c2c(=O)o[nH]c2n1 [Compound 14]
- logkw [1]: 2.07
- CHIIAM [2]: migrated together with the front of the mobile phase

Compound: CCCn1oc(=O)c2c(C)cc(C)nc21 [Compound 15]
- logkw [1]: 3.28

Compound: C#CCn1oc(=O)c2c(C)cc(C)nc21 [Compound 16]
- logkw [1]: 2.81

Compound: Cc1cc(C)c2c(=O)on(C(=O)c3ccc(F)cc3)c2n1 [Compound 17]
- logkw [1]: 3.70

Compound: COc1cc(Cn2oc(=O)c3c(C)cc(C)nc32)cc(OC)c1OC [Compound 18]
- logkw [1]: 3.67

Compound: COc1ccc2nc3c(cc2c1)c(=O)on3C [Compound 19]
- logkw [1]: 3.14

Compound: Cn1oc(=O)c2cc3cc(F)ccc3nc21 [Compound 20]
- logkw [1]: 2.97

- CHIIAM [2]: 33.40
Compound: Cn1oc(=O)c2cc3cc(Cl)ccc3nc21 [Compound 21]
- logkw [1]: 3.33

Compound: Cc1cc2cc3c(=O)on(C)c3nc2cc1C [Compound 22]
- logkw [1]: 3.50

Compound: Cc1ccc2cc3c(=O)on(C)c3nc2c1 [Compound 24]
- logkw [1]: 3.21

Compound: COc1ccc(OC)c2nc3c(cc12)c(=O)on3C [Compound 25]
- logkw [1]: 3.23

Compound: Cc1ccc2nc3c(cc2c1)c(=O)on3C [Compound 26]
- logkw [1]: 3.24
